Experimental data taken from patent publication US11040986B2, “Crystalline forms of cabotegravir sodium” (Sandoz AG, priority 2017, dated 2021).

Assays:
[1] = competitive slurry experiments with Form A and Form B in 2-butanone; format: physicochemical; conditions: for Sample 1 after 1 day (solid form) / Sample 2 after 2 days (solid form) / Sample 3 after 6 days (solid form) / Result (solid form after slurrying): 2-butanone; for Result (solid form after slurrying): equal amounts of Form A and Form B
Protocol: Competitive slurry experiments in 2-butanone were performed by suspending equal amounts of Form A (approximately 50 mg, prepared according to Reference Example 1 herein) and Form B (approximately 50 mg, prepared according to Example 1 herein) in 2-butanone (4 mL) and vigorously stirring the obtained suspension using a magnetic stirrer at 20° C.; 40° C., 60° C. and 80° C. respectively.

[2] = equilibrium slurry experiments starting from cabotegravir sodium Form A (solvent-mediated phase transformation, PXRD); format: physicochemical; conditions: for Result (PXRD): 7 days
Protocol: […] After 7 days, the solids were collected by filtration dried under vacuum (30 mbar) at room temperature for 20 hours and analyzed by PXRD.
PXRD was performed with a PANalytical X'Pert PRO diffractometer equipped with a theta/theta coupled goniometer in transmission geometry, Cu-Kalpha1,2 radiation (wavelength 0.15419 nm) with a focusing mirror and a solid state PIXcel detector. Diffractograms were recorded at a tube voltage of 45 kV and a tube current of 40 mA, applying a stepsize of 0.013° 2-theta with 40 s per step (255 channels) in the angular range of 2° to 40° 2-theta at ambient conditions. A typical precision of the 2-theta values is in the range of ±0.2° 2-Theta, preferably of ±0.1° 2-Theta. Thus, the diffraction peak of cabotegravir sodium Form B that appears for example at 6.8° 2-Theta can appear in the range of from 6.6 to 7.0° 2-Theta, preferably in the range of from 6.7 to 6.9° 2-Theta on most X-ray diffractometers under standard conditions. […]
[…] The suspension was vigorously stirred at 60° C. using a magnetic stirrer. After 2 days, the solid was collected by filtration dried under vacuum (30 mbar) at room temperature for 20 hours and analyzed by PXRD, which confirmed the receipt of Form C.

C[C@H]1CO[C@@H]2Cn3cc(C(=O)NCc4ccc(F)cc4F)c(=O)c([O-])c3C(=O)N12.[Na+] [Form A + Form B, cabotegravir sodium]
Sample 1 after 1 day (solid form) ([1]; 20° C.): Form B
Sample 2 after 2 days (solid form) ([1]; 20° C.): Form B
Sample 3 after 6 days (solid form) ([1]; 20° C.): Form B
Sample 1 after 1 day (solid form) ([1]; 40° C.): Form B
Sample 2 after 2 days (solid form) ([1]; 40° C.): Form B
Sample 3 after 6 days (solid form) ([1]; 40° C.): Form B
Sample 1 after 1 day (solid form) ([1]; 60° C.): Form B
Sample 2 after 2 days (solid form) ([1]; 60° C.): Form B
Sample 3 after 6 days (solid form) ([1]; 60° C.): Form B
Sample 1 after 1 day (solid form) ([1]; 80° C.): Form B
Sample 2 after 2 days (solid form) ([1]; 80° C.): Form B
Sample 3 after 6 days (solid form) ([1]; 80° C.): Form B
Result (solid form after slurrying) ([1]; 20° C.): Form B
Result (solid form after slurrying) ([1]; 40° C.): Form B
Result (solid form after slurrying) ([1]; 60° C.): Form B
Result (solid form after slurrying) ([1]; 80° C.): Form B

C[C@H]1CO[C@@H]2Cn3cc(C(=O)NCc4ccc(F)cc4F)c(=O)c([O-])c3C(=O)N12.[Na+] [Form A, cabotegravir sodium]
Result (PXRD) ([2]; 1,4-dioxane 5 mL, room temperature): Form B
Result (solid form after slurrying) ([2]; 1,4-dioxane, room temperature): Form B
Result (PXRD) ([2]; 2-butanone 5 mL, room temperature): Form B
Result (solid form after slurrying) ([2]; 2-butanone, 20° C.): Form B
Result (solid form after slurrying) ([2]; 2-butanone, 40° C.): Form B
Result (solid form after slurrying) ([2]; 2-butanone, 60° C.): Form B
Result (solid form after slurrying) ([2]; 2-butanone, 80° C.): Form B
Result (solid form after slurrying) ([2]; 2-butanone, room temperature): Form B
Result (PXRD) ([2]; acetone 5 mL, room temperature): Form B
Result (solid form after slurrying) ([2]; acetone, room temperature): Form B
Result (PXRD) ([2]; methyl acetate 5 mL, room temperature): Form B
Result (solid form after slurrying) ([2]; methyl acetate, room temperature): Form B
solid form by PXRD after slurrying ([2]; methylisobutyl ketone 20 mL, 60° C., 2 days): Form C
Result (solid form after slurrying) ([2]; methylisobutyl ketone, 60° C.): Form C
Result (solid form after slurrying) ([2]; methylisobutyl ketone, room temperature): Form C
Result (PXRD) ([2]; tetrahydrofuran 5 mL, room temperature): Form B
Result (solid form after slurrying) ([2]; tetrahydrofuran, room temperature): Form B

C[C@H]1CO[C@@H]2Cn3cc(C(=O)NCc4ccc(F)cc4F)c(=O)c([O-])c3C(=O)N12.[Na+] [Form B, cabotegravir sodium]
thermodynamic stability relative to Form A ([2]; slurry experiments of Table 1, at least under the tested conditions): thermodynamically more stable than prior art Form A
thermodynamic stability relative to Form A ([1]; competitive slurry in 2-butanone, 20 to 80° C.): thermodynamically more stable than Form A
